Where “and” joins values, the source holds several entries; their conditions need not be identical. Equal entries are not always repeated. Where two headings read alike, the source gives them in different places.
Test: Phase 1/2 study: plasma pharmacokinetics of Compound (I) in patients (LC-MS/MS, non-compartmental analysis)
Assay type: in vivo, human
Settings: for Race: mean ± SD
Description: The following example presents a phase 1/2 study of Compound (I) in patients with solid tumors harboring GNAQ/11 mutations or PRKC fusions.
Patients with MUM were sequentially enrolled into Cohort 1 or Cohort 2. Enrollment into Cohort 2 was not initiated until enrollment into Cohort 1 was completed and the dose considered safe. • a. Cohort 1. 6 patients were sequentially enrolled and received 300 mg twice a day (BID), daily, for 28-day treatment cycles. • b. Cohort 2. 6 patients were sequentially enrolled and received 400 mg BID, preceded by an initial 7-day 200 mg BID run-in period, for 28-day treatment cycles. All patients continue to receive treatment with Compound (I) unless the subject experiences one or more of the following: • Adverse event • Lost to follow-up • Physician decision • Progressive disease • Study termination by the Sponsor • Patient/guardian decision • Protocol deviation • Non-compliance with protocol • Death • Pregnancy NUMBER OF SUBJECTS: 12 patients
The following example presents pharmacokinetic results from the study as described in Example 1.
Blood samples were collected on Cycle 1 Day 1 and Day 15 from patients who were administered 300 mg BID of Compound (I), and on Cycle 1 Day 8 and Day 22 from patients who were administered 200 mg BID for 7 days followed by 400 mg BID of Compound (I) for the remainder of the treatment cycle. The plasma samples were processed by protein precipitation (see Ahuja S and Dong M. W, Handbook of Pharmaceutical Analysis by HPLC, Elsevier Inc., Chapter 17, page 433, 2005) and analyzed using an LC-MS/MS method; Quantification was achieved using Compound (I) peak area to internal standard (3-amino-N-(3-(4-amino-4-(methyl-d3)piperidin-1-yl)pyridin-2-yl)-6-(3-(trifluoromethyl)pyridin-2-yl)pyrazine-2-carboxamide) peak area ratios. Concentrations of the calibration curve standards, quality control samples, and patient samples were determined by the method of 1/x^2 weighted least squares linear regression.
The Pharmacokinetic parameters were calculated using Phoenix WinNonlin software (non-compartmental analysis).

[1] = individual patients, 300 mg BID
[2] = individual patients, 300 mg BID, C1 Day 1
[3] = individual patients, 300 mg BID, C1 Day 15
[4] = individual patients, 400 mg BID with 200 mg run-in
[5] = individual patients, 400 mg BID with 200 mg run-in, C1 Day 8
[6] = individual patients, 400 mg BID with 200 mg run-in, C1 Day 22

CC1(N)CCN(c2cccnc2NC(=O)c2nc(-c3ncccc3C(F)(F)F)cnc2N)CC1 [Compound (I), 3-amino-N-(3-(4-amino-4-methylpiperidin-1-yl)pyridin-2-yl)-6-(3-(trifluoromethyl)pyridin-2-yl)pyrazine-2-carboxamide]
Free AUC0-12 (mean free plasma) (300 mg BID): 260 ± 95 ng·h/mL
Cmin (300 mg BID, Cycle 1 Day 15, mean ± SD, n = 12): 790 ± 345 ng/mL
Race (300 mg BID, n = 12): 0.74 ± 0.31
Free AUC0-12 (mean free plasma) (400 mg BID with 200 mg run-in): 396 ± 222 ng·h/mL
Cmin (400 mg BID with 200 mg run-in, Cycle 1 Day 22, mean ± SD, n = 24): 1120 ± 806 ng/mL
Race (400 mg BID with 200 mg run-in, n = 24): 0.97 ± 0.29
mean exposure on C1D8 (200 mg BID 7 days then 400 mg BID) compared to C1D1 of 300 mg BID (human, in vivo): lower mean exposure
mean free plasma AUC0-12, higher at 400 mg BID with 200 mg run-in than at 300 mg BID (human, in vivo): about 44%
AUC(0-t) (human, plasma, oral, 300 mg, 300 mg BID, Cycle 1 Day 1, mean ± SD, n = 12, read-out: AUC0-12): 26200 ± 11100 ng·h/mL
Cmax (human, plasma, oral, 300 mg, 300 mg BID, Cycle 1 Day 1, mean ± SD, n = 12, read-out: Cmax): 4600 ± 2300 ng/mL
AUC(0-t) (human, plasma, oral, 300 mg, 300 mg BID, Cycle 1 Day 15, mean ± SD, n = 12, read-out: AUC0-12): 16800 ± 5380 ng·h/mL
Cmax (human, plasma, oral, 300 mg, 300 mg BID, Cycle 1 Day 15, mean ± SD, n = 12, read-out: Cmax): 2860 ± 690 ng/mL
AUC(0-t) (human, plasma, oral, 300 mg, individual patient 10001-00022, 300 mg BID, C1 Day 1 (footnote a: AUC0-8), read-out: AUC0-8): 35900 ng·h/mL
AUC(0-t) (human, plasma, oral, 400 mg BID, 400 mg BID with 200 mg run-in, Cycle 1 Day 8, mean ± SD, n = 24, read-out: AUC0-12): 24400 ± 12100 ng·h/mL
Cmax (human, plasma, oral, 400 mg BID, 400 mg BID with 200 mg run-in, Cycle 1 Day 8, mean ± SD, n = 24, read-out: Cmax): 3930 ± 1880 ng/mL
AUC(0-t) (human, plasma, oral, 400 mg BID, 400 mg BID with 200 mg run-in, Cycle 1 Day 22, mean ± SD, n = 24, read-out: AUC0-12): 21500 ± 10800 ng·h/mL
Cmax (human, plasma, oral, 400 mg BID, 400 mg BID with 200 mg run-in, Cycle 1 Day 22, mean ± SD, n = 24, read-out: Cmax): 3580 ± 1390 ng/mL
AUC ratio D15/D1 [1]: 0.83 and 0.87 and 1.53 and 0.67 and 1.1 and 0.66 (2×) and 0.44 and 0.51 and 0.41 and 0.62 and 1.22 and 0.61
Cmin on C1D15 [1]: 645 ng/mL and 626 ng/mL and 175 ng/mL and 792 ng/mL and 1075 ng/mL and 1212 ng/mL and 1088 ng/mL and 798 ng/mL and 322 ng/mL and 1337 ng/mL and 1549 ng/mL and 715 ng/mL and 699 ng/mL
AUC0-12 [2]: 22974 ng·h/mL and 17983 ng·h/mL and 3597 ng·h/mL and 22480 ng·h/mL and 19439 ng·h/mL and 43190 ng·h/mL and 35321 ng·h/mL and 26969 ng·h/mL and 39949 ng·h/mL and 233274 ng·h/mL and 26345 ng·h/mL and 19768 ng·h/mL
Cmax [2]: 3159 ng/mL and 2980 ng/mL and 607 ng/mL and 3147 ng/mL and 4367 ng/mL and 8940 ng/mL and 7009 ng/mL and 5386 ng/mL and 6252 ng/mL and 5549 ng/mL and 3866 ng/mL and 5523 ng/mL and 2256 ng/mL
Tmax [2]: 4 h and 2 h and 1 h and 0.5 h
AUC0-12 [3]: 19049 ng·h/mL and 15640 ng·h/mL and 5511 ng·h/mL and 15071 ng·h/mL and 21194 ng·h/mL and 23600 ng·h/mL and 19185 ng·h/mL and 17909 ng·h/mL and 10949 ng·h/mL and 24582 ng·h/mL and 28493 ng·h/mL and 16155 ng·h/mL and 13083 ng·h/mL
Cmax [3]: 3965 ng/mL and 2149 ng/mL and 1392 ng/mL and 3079 ng/mL and 2984 ng/mL and 3442 ng/mL and 2782 ng/mL and 2574 ng/mL and 2969 ng/mL and 3618 ng/mL and 4203 ng/mL and 2348 ng/mL and 2971 ng/mL
Tmax [3]: 0.5 h and 1 h and 2 h
AUC ratio D22/D8 [4]: 1.3 (3×) and 1.1 (2×) and 0.84 and 0.66 and 0.75 and 1.0 (3×) and 0.85 and 0.95 and 0.59 and 0.88 and 1.5 and 0.42 and 1.2 and 0.64 and 0.70 and 1.4
Cmin on C1D22 [4]: 1019 ng/mL and 969 ng/mL and 931 ng/mL and 497 ng/mL and 533 ng/mL and 674 ng/mL and 916 ng/mL and 777 ng/mL and 179 ng/mL and 1631 ng/mL and 334 ng/mL and 1110 ng/mL and 264 ng/mL and 3140 ng/mL and 1082 ng/mL and 1887 ng/mL and 478 ng/mL and 1912 ng/mL and 1592 ng/mL and 2909 ng/mL and 677 ng/mL
AUC0-12 [5]: 17779 ng·h/mL and 19720 ng·h/mL and 22367 ng·h/mL and 23416 ng·h/mL and 16365 ng·h/mL and 28796 ng·h/mL and 13072 ng·h/mL and 56156 ng·h/mL and 22089 ng·h/mL and 23178 ng·h/mL and 18745 ng·h/mL and 6311 ng·h/mL and 38119 ng·h/mL and 13309 ng·h/mL and 22361 ng·h/mL and 10348 ng·h/mL and 32689 ng·h/mL and 48672 ng·h/mL and 23856 ng·h/mL and 17650 ng·h/mL and 43163 ng·h/mL and 23378 ng·h/mL and 30601 ng·h/mL and 13604 ng·h/mL
Cmax [5]: 2068 ng/mL and 2948 ng/mL and 2077 ng/mL and 7600 ng/mL and 2121 ng/mL and 2580 ng/mL and 1949 ng/mL and 7450 ng/mL and 3838 ng/mL and 6560 ng/mL and 4478 ng/mL and 1922 ng/mL and 6872 ng/mL and 4037 ng/mL and 2949 ng/mL and 2603 ng/mL and 3474 ng/mL and 7043 ng/mL and 2520 ng/mL and 2531 ng/mL and 4952 ng/mL and 4452 ng/mL and 4329 ng/mL and 3053 ng/mL
Tmax [5]: 2 h and 1 h and 6 h and 0.5 h and 4 h
AUC0-12 [6]: 22282 ng·h/mL and 21010 ng·h/mL and 18847 ng·h/mL and 15424 ng·h/mL and 12278 ng·h/mL and 13221 ng·h/mL and 18705 ng·h/mL and 20068 ng·h/mL and 6604 ng·h/mL and 36219 ng·h/mL and 7788 ng·h/mL and 19634 ng·h/mL and 10656 ng·h/mL and 48381 ng·h/mL and 20635 ng·h/mL and 28583 ng·h/mL and 11327 ng·h/mL and 30027 ng·h/mL and 32888 ng·h/mL and 38889 ng·h/mL and 18178 ng·h/mL
Cmax [6]: 2556 ng/mL and 2756 ng/mL and 1709 ng/mL and 5026 ng/mL and 2562 ng/mL and 1911 ng/mL and 2853 ng/mL and 2578 ng/mL and 5948 ng/mL and 2203 ng/mL and 2403 ng/mL and 1992 ng/mL and 5663 ng/mL and 5314 ng/mL and 3276 ng/mL and 4296 ng/mL and 5657 ng/mL and 5617 ng/mL and 3676 ng/mL and 3890 ng/mL
